According to ChEMBL document CHEMBL5360657, “Discovery of the TLR7/8 Antagonist MHV370 for Treatment of Systemic Autoimmune Diseases” (ACS Med Chem Lett, 2023):
≈ marks a conversion by molar mass, not a printed value.

Columns and labels:
[1] = Solubility of the compound; type: physicochemical
[2] = target: Voltage-gated inwardly rectifying potassium channel KCNH2 (Homo sapiens, UniProt Q12809); test: Displacement of [3H]-dofetilite from human ERG (unknown origin); type: toxicity
Toll-like receptor 7 = target: T1, Toll-like receptor 7 (Mus musculus, UniProt P58681); test: Antagonist activity at TLR7 in mouse Splenocyte assessed as reduction in IFN-alpha level measured after 20 hrs by Spectramax M5 method; type: cell-based
T1 sequence (P58681 whole entry): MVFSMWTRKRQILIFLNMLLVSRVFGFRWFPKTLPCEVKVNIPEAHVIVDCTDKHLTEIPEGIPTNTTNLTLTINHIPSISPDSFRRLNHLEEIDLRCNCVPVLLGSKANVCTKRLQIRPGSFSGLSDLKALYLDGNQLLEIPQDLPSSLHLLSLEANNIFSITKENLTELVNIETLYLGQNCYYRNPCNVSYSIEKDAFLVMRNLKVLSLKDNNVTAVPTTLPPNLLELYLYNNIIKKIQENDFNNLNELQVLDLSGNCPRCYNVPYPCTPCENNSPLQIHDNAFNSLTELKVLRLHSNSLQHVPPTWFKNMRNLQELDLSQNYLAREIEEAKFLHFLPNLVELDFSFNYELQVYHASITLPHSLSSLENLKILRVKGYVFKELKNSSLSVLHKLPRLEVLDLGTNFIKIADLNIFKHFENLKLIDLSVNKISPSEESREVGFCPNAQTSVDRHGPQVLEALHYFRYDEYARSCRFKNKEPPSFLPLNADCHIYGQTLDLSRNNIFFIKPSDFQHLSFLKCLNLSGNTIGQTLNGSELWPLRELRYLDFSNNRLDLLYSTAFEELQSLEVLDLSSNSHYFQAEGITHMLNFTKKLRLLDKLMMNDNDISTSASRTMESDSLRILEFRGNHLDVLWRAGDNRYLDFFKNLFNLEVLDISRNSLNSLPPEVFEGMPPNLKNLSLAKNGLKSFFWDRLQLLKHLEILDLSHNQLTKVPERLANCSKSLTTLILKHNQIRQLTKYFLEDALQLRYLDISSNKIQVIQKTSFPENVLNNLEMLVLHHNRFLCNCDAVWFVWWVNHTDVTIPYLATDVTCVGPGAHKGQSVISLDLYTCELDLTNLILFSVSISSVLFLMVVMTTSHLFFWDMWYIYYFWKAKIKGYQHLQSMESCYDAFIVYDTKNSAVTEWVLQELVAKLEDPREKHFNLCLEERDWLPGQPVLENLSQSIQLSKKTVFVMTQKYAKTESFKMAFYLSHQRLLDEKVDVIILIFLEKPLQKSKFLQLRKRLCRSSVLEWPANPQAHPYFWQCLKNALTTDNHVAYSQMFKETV

Voltage-gated inwardly rectifying potassium channel KCNH2, sequence (Q12809 whole entry): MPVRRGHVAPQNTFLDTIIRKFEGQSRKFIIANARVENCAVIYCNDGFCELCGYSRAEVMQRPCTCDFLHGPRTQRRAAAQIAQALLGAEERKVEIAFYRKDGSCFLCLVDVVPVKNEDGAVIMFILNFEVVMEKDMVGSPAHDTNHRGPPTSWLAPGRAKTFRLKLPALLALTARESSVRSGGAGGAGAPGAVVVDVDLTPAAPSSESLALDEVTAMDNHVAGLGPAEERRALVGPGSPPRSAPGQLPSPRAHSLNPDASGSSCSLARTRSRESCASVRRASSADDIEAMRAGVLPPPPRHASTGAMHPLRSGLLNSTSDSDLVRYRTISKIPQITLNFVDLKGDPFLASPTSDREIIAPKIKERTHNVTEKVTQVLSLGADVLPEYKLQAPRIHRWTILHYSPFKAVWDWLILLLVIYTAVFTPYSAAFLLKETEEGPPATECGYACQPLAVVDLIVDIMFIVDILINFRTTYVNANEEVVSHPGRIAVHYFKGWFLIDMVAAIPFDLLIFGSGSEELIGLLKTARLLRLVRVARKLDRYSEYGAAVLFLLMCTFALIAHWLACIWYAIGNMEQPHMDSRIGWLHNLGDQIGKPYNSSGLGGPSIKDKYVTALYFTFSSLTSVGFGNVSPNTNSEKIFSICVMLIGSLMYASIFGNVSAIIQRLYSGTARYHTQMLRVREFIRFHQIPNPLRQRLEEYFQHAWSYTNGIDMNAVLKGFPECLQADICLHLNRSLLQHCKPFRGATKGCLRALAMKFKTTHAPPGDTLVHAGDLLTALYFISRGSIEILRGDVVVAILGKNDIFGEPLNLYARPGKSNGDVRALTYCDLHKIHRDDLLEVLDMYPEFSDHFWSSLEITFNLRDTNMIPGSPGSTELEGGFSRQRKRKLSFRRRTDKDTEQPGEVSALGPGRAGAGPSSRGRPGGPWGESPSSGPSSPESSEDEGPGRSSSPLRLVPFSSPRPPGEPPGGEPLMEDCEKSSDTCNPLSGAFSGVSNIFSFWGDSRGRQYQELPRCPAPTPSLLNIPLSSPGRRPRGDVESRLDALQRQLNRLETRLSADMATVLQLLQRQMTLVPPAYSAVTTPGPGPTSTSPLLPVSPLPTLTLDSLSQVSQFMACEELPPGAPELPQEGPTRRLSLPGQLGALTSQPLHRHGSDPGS

solubility [1]: 110 µM (≈ 43.1 µg/mL)
IC50 (Toll-like receptor 7): < 0.005 µM
Structure (SMILES): Cc1cc(-c2cnc(OCC34CCC(N)(CC3)CC4)c(C)c2)c2cnn(C)c2n1
IC50 [2]: 3.4 µM
